# Assay results reported in PubChem BioAssay (NCI).
#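 Assay format: 96-well plates, 48-hour exposure. At the GI50, growth is halved. TGI: concentration producing complete growth inhibition.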
# Tests used:
# Experiment in all cases: NCI-60 cell line screen, 48 h
# M14 melanoma = test system: M14 melanoma
# NCI-H23 lung = test system: NCI-H23 lung
# SK-OV-3 ovarian = test system: SK-OV-3 ovarian
# KM12 colon = test system: KM12 colon
# U251 CNS = test system: U251 CNS
# TK-10 renal = test system: TK-10 renal
# MOLT-4 leukemia = test system: MOLT-4 leukemia
# MALME-3M melanoma = test system: MALME-3M melanoma
# SN12C renal = test system: SN12C renal
# OVCAR-5 ovarian = test system: OVCAR-5 ovarian
# A549 NSCLC = test system: A549 NSCLC
# HT29 colon = test system: HT29 colon
# SF-268 CNS = test system: SF-268 CNS
# NCI-H460 lung = test system: NCI-H460 lung
# A498 renal = test system: A498 renal
# HS 578T breast = test system: HS 578T breast
# HL-60(TB) leukemia = test system: HL-60(TB) leukemia
# CAKI-1 renal = test system: CAKI-1 renal
# NCI-H226 lung = test system: NCI-H226 lung
# HCC-2998 colon = test system: HCC-2998 colon
# CCRF-CEM leukemia = test system: CCRF-CEM leukemia
# LOX IMVI melanoma = test system: LOX IMVI melanoma
# HOP-62 NSCLC = test system: HOP-62 NSCLC
# HCT-116 colon = test system: HCT-116 colon
# IGROV1 ovarian = test system: IGROV1 ovarian
# NCI-H522 lung = test system: NCI-H522 lung
# UACC-257 melanoma = test system: UACC-257 melanoma
# SK-MEL-5 melanoma = test system: SK-MEL-5 melanoma
# HCT-15 colon = test system: HCT-15 colon
# NCI/ADR-RES ovarian = test system: NCI/ADR-RES ovarian
# UO-31 renal = test system: UO-31 renal
# RPMI-8226 leukemia = test system: RPMI-8226 leukemia
# OVCAR-3 ovarian = test system: OVCAR-3 ovarian
# T-47D breast = test system: T-47D breast
# ACHN renal = test system: ACHN renal
# COLO 205 colon = test system: COLO 205 colon
# BT-549 breast = test system: BT-549 breast
# HOP-92 NSCLC = test system: HOP-92 NSCLC
# SF-539 CNS = test system: SF-539 CNS
# EKVX NSCLC = test system: EKVX NSCLC
# SK-MEL-2 melanoma = test system: SK-MEL-2 melanoma
# K-562 leukemia = test system: K-562 leukemia
# SNB-75 CNS = test system: SNB-75 CNS
# UACC-62 melanoma = test system: UACC-62 melanoma
# OVCAR-4 ovarian = test system: OVCAR-4 ovarian
# SR leukemia = test system: SR leukemia
# OVCAR-8 ovarian = test system: OVCAR-8 ovarian
# PC-3 prostate = test system: PC-3 prostate
# SF-295 CNS = test system: SF-295 CNS
# 786-0 renal = test system: 786-0 renal
# SNB-19 CNS = test system: SNB-19 CNS
# DU-145 prostate = test system: DU-145 prostate
# RXF 393 renal = test system: RXF 393 renal
# MDA-MB-435 = test system: MDA-MB-435
# SK-MEL-28 melanoma = test system: SK-MEL-28 melanoma
# MCF7 breast = test system: MCF7 breast
# MDA-MB-231 breast = test system: MDA-MB-231 breast
# SW-620 colon = test system: SW-620 colon
structure (smiles),measurement,setting,value
NC(=O)c1cccc(N2Cc3ccccc3OC3=C2C(=O)c2c(O)ccc(O)c2C3=O)c1,GI50,M14 melanoma,554 nM
same,TGI,M14 melanoma,1970 nM
same,GI50,NCI-H23 lung,1590 nM
same,TGI,NCI-H23 lung,4500 nM
same,GI50,SK-OV-3 ovarian,3510 nM
same,TGI,SK-OV-3 ovarian,13000 nM
same,GI50,KM12 colon,1880 nM
same,TGI,KM12 colon,4880 nM
same,GI50,U251 CNS,1510 nM
same,TGI,U251 CNS,4590 nM
same,GI50,TK-10 renal,221 nM
same,TGI,TK-10 renal,682 nM
same,GI50,MOLT-4 leukemia,235 nM
same,TGI,MOLT-4 leukemia,1090 nM
same,GI50,MALME-3M melanoma,194 nM
same,TGI,MALME-3M melanoma,614 nM
same,GI50,SN12C renal,1440 nM
same,TGI,SN12C renal,3400 nM
same,GI50,OVCAR-5 ovarian,1280 nM
same,TGI,OVCAR-5 ovarian,2870 nM
same,GI50,A549 NSCLC,2830 nM
same,TGI,A549 NSCLC,10100 nM
same,GI50,HT29 colon,302 nM
same,TGI,HT29 colon,1150 nM
same,GI50,SF-268 CNS,1340 nM
same,TGI,SF-268 CNS,3910 nM
same,GI50,NCI-H460 lung,2340 nM
same,TGI,NCI-H460 lung,6120 nM
same,GI50,A498 renal,2640 nM
same,TGI,A498 renal,7210 nM
same,GI50,HS 578T breast,3280 nM
same,TGI,HS 578T breast,30800 nM
same,GI50,HL-60(TB) leukemia,188 nM
same,TGI,HL-60(TB) leukemia,496 nM
same,GI50,CAKI-1 renal,301 nM
same,TGI,CAKI-1 renal,1130 nM
same,GI50,NCI-H226 lung,2040 nM
same,TGI,NCI-H226 lung,5950 nM
same,GI50,HCC-2998 colon,1960 nM
same,TGI,HCC-2998 colon,3640 nM
same,GI50,CCRF-CEM leukemia,120 nM
same,TGI,CCRF-CEM leukemia,595 nM
same,GI50,LOX IMVI melanoma,284 nM
same,TGI,LOX IMVI melanoma,897 nM
same,GI50,HOP-62 NSCLC,2140 nM
same,TGI,HOP-62 NSCLC,5960 nM
same,GI50,HCT-116 colon,267 nM
same,TGI,HCT-116 colon,963 nM
same,GI50,IGROV1 ovarian,1190 nM
same,TGI,IGROV1 ovarian,3010 nM
same,GI50,NCI-H522 lung,68.2 nM
same,TGI,NCI-H522 lung,256 nM
same,GI50,UACC-257 melanoma,531 nM
same,TGI,UACC-257 melanoma,1730 nM
same,GI50,SK-MEL-5 melanoma,1760 nM
same,TGI,SK-MEL-5 melanoma,3840 nM
same,GI50,HCT-15 colon,224 nM
same,TGI,HCT-15 colon,724 nM
same,GI50,NCI/ADR-RES ovarian,2130 nM
same,TGI,NCI/ADR-RES ovarian,35600 nM
same,GI50,UO-31 renal,138 nM
same,TGI,UO-31 renal,344 nM
same,GI50,RPMI-8226 leukemia,319 nM
same,TGI,RPMI-8226 leukemia,1360 nM
same,GI50,OVCAR-3 ovarian,233 nM
same,TGI,OVCAR-3 ovarian,646 nM
same,GI50,T-47D breast,213 nM
same,TGI,T-47D breast,746 nM
same,GI50,ACHN renal,165 nM
same,TGI,ACHN renal,485 nM
same,GI50,COLO 205 colon,112 nM
same,TGI,COLO 205 colon,298 nM
same,GI50,BT-549 breast,944 nM
same,TGI,BT-549 breast,2410 nM
same,GI50,HOP-92 NSCLC,270 nM
same,TGI,HOP-92 NSCLC,752 nM
same,GI50,SF-539 CNS,1250 nM
same,TGI,SF-539 CNS,2630 nM
same,GI50,EKVX NSCLC,1260 nM
same,TGI,EKVX NSCLC,4090 nM
same,GI50,SK-MEL-2 melanoma,1960 nM
same,TGI,SK-MEL-2 melanoma,4790 nM
same,GI50,K-562 leukemia,164 nM
same,TGI,K-562 leukemia,1330 nM
same,GI50,SNB-75 CNS,1490 nM
same,TGI,SNB-75 CNS,6670 nM
same,GI50,UACC-62 melanoma,319 nM
same,TGI,UACC-62 melanoma,1140 nM
same,GI50,OVCAR-4 ovarian,312 nM
same,TGI,OVCAR-4 ovarian,1130 nM
same,GI50,SR leukemia,88 nM
same,TGI,SR leukemia,912 nM
same,GI50,OVCAR-8 ovarian,304 nM
same,TGI,OVCAR-8 ovarian,1500 nM
same,GI50,PC-3 prostate,1280 nM
same,TGI,PC-3 prostate,4560 nM
same,GI50,SF-295 CNS,2210 nM
same,TGI,SF-295 CNS,5990 nM
same,GI50,786-0 renal,276 nM
same,TGI,786-0 renal,986 nM
same,GI50,SNB-19 CNS,3000 nM
same,TGI,SNB-19 CNS,10800 nM
same,GI50,DU-145 prostate,517 nM
same,TGI,DU-145 prostate,1640 nM
same,GI50,RXF 393 renal,189 nM
same,TGI,RXF 393 renal,433 nM
same,GI50,MDA-MB-435,1080 nM
same,TGI,MDA-MB-435,2860 nM
same,GI50,SK-MEL-28 melanoma,433 nM
same,TGI,SK-MEL-28 melanoma,1500 nM
same,GI50,MCF7 breast,327 nM
same,TGI,MCF7 breast,1730 nM
same,GI50,MDA-MB-231 breast,342 nM
same,TGI,MDA-MB-231 breast,1040 nM
same,GI50,SW-620 colon,275 nM
same,TGI,SW-620 colon,1030 nM
